From patent US20130116195A1, “Binding ligand linked drug delivery conjugates of tubulysins” (priority 2009, published 2013) come the findings set out here.

The target in the test is T1, folate receptors (FRs) on KB cells (Homo sapiens, UniProt P15328).
T1 construct: FR-positive KB cells were heavily seeded into 24-well cell culture plates; endogenous in cells; host or cells: KB cells
Put plainly: Relative Affinity Assay (displacement of 3H-folic acid). Format: binding. The conditions noted are these: 10% serum/FDRPMI; folic acid set to 1. The protocol:
METHOD: Relative Affinity Assay. The affinity for folate receptors (FRs) relative to folate was determined according to a previously described method (Westerhof, G. R., J. H. Schornagel, et al. (1995) Mol. Pharm. 48: 459-471) with slight modification. Briefly, FR-positive KB cells were heavily seeded into 24-well cell culture plates and allowed to adhere to the plastic for 18 h. Spent incubation media was replaced in designated wells with folate-free RPMI (FFRPMI) supplemented with 100 nM ^3H-folic acid in the absence and presence of increasing concentrations of test article or folic acid. Cells were incubated for 60 min at 37° C. and then rinsed 3 times with PBS, pH 7.4. Five hundred microliters of 1% SDS in PBS, pH 7.4, were added per well. Cell lysates were then collected and added to individual vials containing 5 mL of scintillation cocktail, and then counted for radioactivity. Negative control tubes contained only the ^3H-folic acid in FFRPMI (no competitor). Positive control tubes contained a final concentration of 1 mM folic acid, and CPMs measured in these samples (representing non-specific binding of label) were subtracted from all samples.

T1 sequence (P15328 25-234): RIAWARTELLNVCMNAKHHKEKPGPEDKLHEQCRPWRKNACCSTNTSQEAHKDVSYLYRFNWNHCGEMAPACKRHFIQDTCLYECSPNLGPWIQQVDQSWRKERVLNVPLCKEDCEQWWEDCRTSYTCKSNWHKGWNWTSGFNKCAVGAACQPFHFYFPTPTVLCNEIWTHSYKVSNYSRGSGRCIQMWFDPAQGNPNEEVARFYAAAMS

Turning to `Nc1nc2ncc(CNc3ccc(C(=O)N[C@@H](CCC(=O)O)C(=O)O)cc3)nc2c(=O)[nH]1` [folic acid], the relative affinity worked out at 1.
